Experimental data: patent publication US20110256557A1, “IDENTIFYING PARATHYROID HORMONE AGONISTS AND ANTAGONISTS” (DISCOVERYBIOMED, INC., priority 2008, published 2011)

Assays:
β-catenin = test: Western blot of cytosolic β-catenin in UMR-106 cells; assay type: cell-based, rat
Method: (§1) Cells were harvested in cavitation buffer (5 mM HEPES, pH 7.4, 3 mM MgCl2, 1 mM EGTA, 250 mM sucrose) containing protease and phosphatase inhibitors and homogenized by nitrogen cavitation (200 p.s.i., for 5 minutes) in a cell disruption bomb (Parr Instrument Co.; Moline, Ill.). The cell homogenate was centrifuged twice at 700 g for 10 minutes to pellet the nuclei. The supernatant was further centrifuged at 100,000 g (Beckman SW50.1 rotor) for 1 hour to separate the membrane and cytosol fractions, and the resulting membrane pellet was washed three times with cavitation buffer before use in the assays (Zhang et al., Biochem. J. 343:541-9 (1999)). Immunoprecipitation and Western blot analysis of cell lysates were performed as described previously (Wan et al., Am. J. Pathol. 166:1379-92 (2005)).

Xenopus = test: LRP6-mediated secondary axis induction in Xenopus embryos; assay type: in vivo; settings: ventral injection of PTH and PTH1R RNA with LRP6 RNA
From the text: RNAs for microinjection were synthesized using SP6 mMessage mMachine in vitro transcription kit (Ambion; Austin, Tex.). […] The doses of RNAs used were: 200 pg LRP6, 2 pg PTH and 50 pg PTH1R.

LRP6 = LRP6 phosphorylation at PPPSP motifs, western blotting with Ab1490, UMR-106 cells; assay type: cell-based, rat; settings: UMR-106 cells, endogenous LRP6, Ab1490
Method: as §1
As phosphorylation of LRP6 at the PPPSP motifs plays a crucial role in activating downstream β-catenin signaling by Wnt, whether PTH induces phosphorylation of LRP6 at PPPSP motifs (Mao et al., Mol. Cell. 7:801-9 (2001); Tamai et al., Mol. Cell. 13:149-56 (2004); Davidson et al., Nature 438:867-72 (2005); Zeng et al., Nature 438:873-7 (2005)). Immunoprecipitated LRP6 from extracts of PTH-treated UMR-106 cells were monitored for their phosphorylation, by western blotting, with an antibody that recognizes phosphorylated PPPSP motifs (Ab1490) (Tamai et al., Mol. Cell. 13:149-56 (2004)). […] Phosphorylation of PPPSP motifs is required for axin recruitment from cytoplasm to LRP6 at cell membrane. […] Fz8CRD, a competitive inhibitor of the Wnt receptor Fz (Hsieh et al., Proc. Natl. Acad. Sci. USA 96:3546-55 (1999)), was used to exclude the possibility that these PTH effects are mediated through promotion of Wnts production or sensitization of Wnt-stimulated signaling. […] In contrast, LRP6N blocked PTH-stimulated LRP6 phosphorylation (FIG. 33).

axin1 = test: Axin1 recruitment to cell membrane, cell fractionation assay in mouse primary preosteoblasts; assay type: cell-based
Method: Osteoblasts were isolated by digestion of calvaria of newborn mice as described (Wang et al., J. Clin. Invest. 117:1616-26 (2007)). Briefly, calvaria were incubated with 10 ml of digestion solution containing 1.8 mg/ml of collagenase type I (Worthington Biochemical Corp.; Lakewood, N.J.) for 15 minutes at 37° C. under constant agitation. The supernatant was then harvested, replaced with fresh collagenase and the digestion repeated an additional 4 times. Digestion solutions containing the osteoblasts were pooled together. After centrifugation, osteoblasts were obtained and cultured in α-Minimal Essential Media (MEM) containing 10% FBS and 1% penicillin/streptomycin at 37° C. in a humidified incubator supplied with 5% CO2.
as §1, with “Immunoprecipitation and Western blot analysis of cell lysates were performed as described previously (Wan et al., Am. J. Pathol. 166:1379-92 (2005)).” left out

axin-LRP6 binding = test: Co-IP of axin binding to LRP6 in HEK293 cells; assay type: cell-based; settings: co-IP, HEK293 cells
Method: as §1

[1] = system: TCF/LEF luciferase reporter; test: High-throughput screen validation, TCF/LEF luciferase reporter in osteosarcoma cell line; assay type: cell-based
Method: Osteosarcoma cells were plated in a 96 well plate. The cells were transiently transfected with the TCF/LEF luciferase reporter using LipofectAMINE PLUS (Invitrogen; Carlsbad, Calif.). The cells were incubated overnight at 37° C. in OptiMEM-1 serum-free medium with the transfection reagents. The cells were washed and serum-containing medium was added to the cells for 8 hours. The serum-containing medium was replaced with serum-free medium and the cells were stimulated overnight with PTH and WNT3a. Supernatant from the stimulated cells was collected for detection of osteosclerostin, and the cells were subjected to a luciferase assay as previously described (Wan et al., Am. J. Pathol. 166:1379-92 (2005)).
To determine agonists and antagonists of the additive signaling of the PTH receptor and the WNT receptor, (as well as any co-receptors) in bone cells, a high-throughput screen is designed. […] An osteosarcoma cell line is transiently transfected with a TCF/LEF luciferase reporter. The cells are treated with WNT3a and PTH and luciferase activity is determined (FIG. 46).

Parathyroid hormone [PTH]
abundance of β-catenin in the cytosol (β-catenin): enhanced | LRP6-induced secondary axis induction (Xenopus): enhanced | phosphorylation of LRP6 at the PPPSP motifs (LRP6): rapidly induced | axin1 level on cell membrane (axin1): increased | binding of axin to LRP6 (axin-LRP6 binding): rapidly increased | stimulation of the TCF/LEF luciferase reporter, treatment alone ([1]; 96-well plate): does not stimulate | effect on WNT stimulation of the TCF/LEF luciferase reporter ([1]; PTH and WNT3a treatment): potentiates
